Experimental data as given in patent US12458605B2, “Lipid nanoparticle” (National University Corporation Hokkaido University, priority 2020, dated 2025).

Experiments:
[1] = Nucleic acid encapsulation rate by Ribogreen (section II); assay type: physicochemical; settings: for % mRNA encapsulation: NlucmRNA-loaded LNP, 60:10:40:1; for % pDNA encapsulation: pFluc-loaded LNP
Protocol: The encapsulation rates of siRNA, mRNA, and pDNA of lipid nanoparticles were measured using Ribogreen (manufactured by life technologies).

spleen = experiment: In vivo Fluc activity of FlucmRNA-loaded LNP by in vivo imaging, spleen; settings: Balb/c mice, FlucmRNA-loaded LNP i.v. 0.1 mg mRNA/kg, 6 hours
Method in brief: (§1)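 Female Balb/c mice, 7 weeks old, received LNP i.v. at 0.1 mg mRNA/kg. At 6 h, luciferin was given via tail vein at 1.5 mg per mouse, and liver and spleen luminescence was imaged as Avg Radiance [p/s/cm2/sr] near 560 nm.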

[2] = Storage stability of FlucmRNA-loaded LNP at −80, 5, 25 and 40° C.; assay type: physicochemical
Method in brief: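 FlucmRNA-loaded LNPs held at −80, 5, 25 or 40° C; at each time point size, PDI and encapsulation measured. Quality deemed maintained while size stays within ±20 nm of preparation day, PDI ≤0.2 and encapsulation ≥80%; value is the period meeting all three.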

[3] = siRNA/mRNA encapsulation rate by Ribogreen reagent (section IV); assay type: physicochemical; settings: for % siRNA encapsulation: F7siRNA-loaded LNP, 50:10:38.5:1.5, N/P ratio 6; for % mRNA encapsulation: FlucmRNA-loaded LNP, 50:10:38.5:1.5
Method in brief: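 LNPs diluted in TE buffer to 8 μg/mL nucleic acid for surface RNA, or to 1.2 μg/mL with 1% Triton X-100 for total RNA. RiboGreen fluorescence (ex 485/em 528 nm) quantified against a Triton-containing standard curve (0-2.5 μg/mL). Encapsulation % = (total − surface)/total × 100.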

[4] = Zeta potential in 10 mM HEPES buffer (pH 7.4); assay type: physicochemical
Protocol: (§2) The average particle size (number-average value) and PDI in PBS(−) and zeta potential in 10 mM HEPES buffer solution (pH 7.4) of lipid nanoparticles were measured using “Zetasizer Nano ZS ZEN3600”, an analyzer utilizing dynamic light scattering (manufactured by Malvern).

[5] = Average particle size (ζ-Average) and PDI by dynamic light scattering (Zetasizer Nano ZSP); assay type: physicochemical
Method in brief: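 Lipid nanoparticles dispersed in PBS(−) were sized by dynamic light scattering, giving the ζ-Average diameter and polydispersity index (PDI).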

liver = experiment: In vivo Fluc activity of FlucmRNA-loaded LNP by in vivo imaging, liver; settings: Balb/c mice, FlucmRNA-loaded LNP i.v. 0.1 mg mRNA/kg, 6 hours
Method in brief: as §1

F7 = experiment: In vivo F7 knockdown, plasma F7 enzyme activity (BIOPHEN FVII), Balb/c mice; settings: i.v. 0.025 mg siRNA/kg, plasma at 24 hours
Method in brief: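 Female Balb/c mice, 5 weeks old, received F7 siRNA lipid nanoparticles i.v. at 0.025 mg siRNA/kg; plasma F7 activity measured chromogenically (BIOPHEN FVII) 24 h later. Values are % of untreated mice, also expressed as a ratio to MC3-containing nanoparticles set at 1.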

[6] = Average particle size and PDI by dynamic light scattering (Zetasizer Nano ZS); assay type: physicochemical
Protocol: as §2

[7] = NlucmRNA-loaded LNP, 60:10:40:1
[8] = F7siRNA-loaded LNP, 50:10:38.5:1.5, N/P ratio 6
[9] = FlucmRNA-loaded LNP, 50:10:38.5:1.5
[10] = FlucmRNA-loaded LNP, lipid:DSPC:cholesterol:DMG-PEG2K 50:10:38.5:1.5
[11] = NlucmRNA-loaded LNP, lipid:DSPC:cholesterol:PEG-DMG 60:10:40:1
[12] = pFluc-loaded LNP, 50:10:40:1.5, N/P ratio 6
[13] = pFluc-loaded LNP, 50:10:40:1.5, N/P ratio 9

| % mRNA encapsulation [1] | % pDNA encapsulation ([1]; N/P ratio 6) | % pDNA encapsulation ([1]; N/P ratio 9) | % siRNA encapsulation [3] | % mRNA encapsulation [3] | ζ-potential (mV) [4, 7] | ζ-potential (mV) ([4]; pFluc-loaded LNP, N/P ratio 6) | ζ-potential (mV) ([4]; pFluc-loaded LNP, N/P ratio 9) | PDI [5, 8] | ζ-Average (nm) [5, 8] | PDI [5, 9] | ζ-Average (nm) [5, 10] | PdI [6, 7] | ζ-Average (nm) [6, 11] | ζ-Average (nm) [6, 12] | ζ-Average (nm) [6, 13] | PdI ([6]; pFluc-loaded LNP, N/P ratio 6) | PdI ([6]; pFluc-loaded LNP, N/P ratio 9) | Compound | Fluc Activity in spleen (spleen) | Fluc Activity in liver (liver) | further results |
| --- | --- | --- | --- | --- | --- | --- | --- | --- | --- | --- | --- | --- | --- | --- | --- | --- | --- | --- | --- | --- | --- |
| 77.6% | 41.5% | 70 ± 5.2% | 96.1% | 80.1% | −1.23 mV | −0.57 mV | −0.4 ± 0.4 mV | 0.102 | 68.86 nm | 0.072 | 71.28 nm | 0.139 | 113.4 nm | 105.6 nm | 113.9 ± 4.2 nm | 0.14 | 0.2 ± 0.03 | CCCCCCCC/C=C\CCCCCCCC(=O)OCCCCCCC(O)(CCCCCCOC(=O)CCCCCCC/C=C\CCCCCCCC)CCCCN(CCC)CCC [CL4H6, 7-(4-(dipropylamino)butyl)-7-hydroxytridecane-1,13-diyl dioleate, reference compound] | 2.10E+06 Avg Radiance [p/s/cm2/sr] | 1.06E+07 Avg Radiance [p/s/cm2/sr] | period for which quality remained good, −80° C. ([2]; maximum storage period 1 week): 0 week; period for which quality remained good, 5° C. ([2]; maximum storage period 5 weeks): 0 week weeks; period for which quality remained good, 25° C. ([2]; maximum storage period 5 weeks): 1 week weeks; period for which quality remained good, 40° C. (days) ([2]; maximum storage period 5 weeks): 0 day days; F7 enzyme activity (%) (F7; untreated mice as 100%): 47.2% |
| 90.5% | 72.4% | 81.9 ± 3^ % | 100.2% | 83.8% | 0.123 mV | 0.367 mV | 0.9 ± 0.9 mV | 0.142 | 123.50 nm | 0.238 | 180.90 nm | 0.495 | 94.34 nm | 121.7 nm | 149.9 ± 9.8 nm | 0.08 | 0.11 ± 0.01 | CCCCCCCC/C=C\CCCCCCCC(=O)OCCCCCCC(O)(CCCCCCOC(=O)CCCCCCC/C=C\CCCCCCCC)CCCCOC(=O)C1CCN(C)CC1 [CL15H6, 7-hydroxy-7-(4-((1-methylpiperidine-4-carbonyl)oxy)butyl)tridecane-1,13-diyl dioleate, reference compound] | 6.17E+05 Avg Radiance [p/s/cm2/sr] | 1.17E+05 Avg Radiance [p/s/cm2/sr] | quality at production (storage stability criteria) ([2]; criteria: PDI 0.2 or less, encapsulation 80% or more): Does not meet the criteria for “good” at production; F7 enzyme activity (Ratio using MC3 as 1) (F7; relative plasma F7 activity of MC3 LNP as 1): 1.99 |
